Data on 23 compounds can be found in patent US20180311342A1, “IMMUNOSTIMULATING AGENT” (AJINOMOTO CO., INC., priority 2017, published 2018).

Format in all cases: in vivo, BALB/c mice
The test system of experiment [1] is anti-OVA-specific IgG2a subclass antibody. In words: Adjuvant activity test: anti-OVA-specific IgG2a subclass antibody in serum of OVA-immunized mice (ELISA). To be noted: dorsal-subcutaneous, compared to OVA single administration group.
In experiment [2] the test system is anti-OVA-specific IgG1 and IgG2a subclass antibody production. In words: Evaluation test of adjuvant activity (overall conclusion from anti-OVA IgG1 and IgG2a production). The method, then: 8-Week-old female BALB/c mice were divided into groups (N=6), and each group was primarily immunized by dorsal-subcutaneous administration of (1) ovalbumin (OVA) (5 μg) dissolved in saline as an antigen (OVA single administration group), (2) OVA 5 μg and Addavax™ (mixed with saline at 1:1) dissolved in saline (Addavax™ administration group) as positive control adjuvant, (3) OVA 5 μg and SZ137 0.256 μmol dissolved or dispersed in 5% α-cyclodextrin (hereinafter to be simply referred to as αCD)-added saline (SZ137 administration group), (4) OVA (5 μg) and SZ138 (0.256 μmol) dissolved or dispersed in 5% αCD-added saline (SZ138 administration group), (5) OVA (5 μg) and SZ142 (0.256 μmol) dissolved or dispersed in 5% αCD-added saline (SZ142 administration group), (6) OVA (5 μg) and SZ144 (0.256 μmol) dissolved or dispersed in 5% αCD-added saline (SZ144 administration group), (7) OVA (5 μg) and SZ145 (0.256 μmol) dissolved or dispersed in 5% αCD-added saline (SZ145 administration group), (8) OVA (5 μg) and SZ146 (0.256 μmol) dissolved or dispersed in 5% αCD-added saline (SZ146 administration group), (9) OVA (5 μg) and SZ147 (0.256 μmol) dissolved or dispersed in 5% αCD-added saline (SZ147 administration group), (10) OVA (5 μg) and SZ148 (0.256 μmol) dissolved or dispersed in 5% αCD-added saline (SZ148 administration group), each per mouse. Two week later, the secondary immunization was carried out by dorsal-subcutaneous administration of solutions or dispersions similar to those of the above-mentioned (1)-(10) again. […]
To a 96 well plate was added 5 μg/ml OVA at 100 µl/well, and the mixture was incubated at 4° C. overnight. After incubation, the mixture was washed three times with 200 μl of PBS-T (PBS (phosphate buffered saline)+0.05% (v/v) Tween 20) per well, and blocked with 100 μl of 5% FCS (fetal calf serum)/PBS solution per well at room temperature for 1-2 hr. Thereafter, the mixture was washed three times with PBS-T (200 μl/well), a diluted serum sample (100 l/well) or the same amount of 5% FCS/PBS solution as a control was added, and the mixture was incubated at 37° C. for 1 hr. To calculate concentration of the antibody, the standard of an anti-OVA-specific IgG1 subclass antibody diluted with 2% FCS/PBS solution was added at 100 ng/ml, 50 ng/ml, 25 ng/ml, 12.5 ng/ml, 6.25 ng/ml, 3.125 ng/ml, 1.56 ng/ml, 0.781 ng/ml, 0.391 ng/ml, 0.195 ng/ml, 0.098 ng/ml, 0 ng/ml, per 1 well. When an anti-OVA-specific IgG2a subclass antibody was measured, the standard of an anti-OVA-specific IgG2a subclass antibody was added at 50 ng/ml, 25 ng/ml, 12.5 ng/ml, 6.25 ng/ml, 3.125 ng/ml, 1.56 ng/ml, 0.781 ng/ml, 0.391 ng/ml, 0.195 ng/ml, 0.098 ng/ml, 0.049 ng/ml, 0 ng/ml, per 1 well. Thereafter, similar to the samples, the mixture was washed five times with PBS-T (200 μl/well), a diluted biotinylated anti-mouse IgG1 antibody and IgG2a antibody were added (100 μl/well), and the mixture was incubated at 37° C. for 45 min. Thereafter, the mixture was washed five times with PBS-T (200 μl/well), a diluted anti-biotin-HRP antibody was added (100 μl/well), and the mixture was incubated at 37° C. for another 30 min. Thereafter, the mixture was washed five times with PBS-T (200 μl/well), TMB substrate solution was added (100 μl/well), and the mixture was incubated at room temperature for 10-15 min. Thereafter, a reaction quenching liquid (2N sulfuric acid solution) was added (50 l/well) to discontinue a color developing reaction, and the absorbance (OD Value=450 nm) was measured by a microplate reader. A standard curve was drawn from the measured OD values, and the concentration was calculated. […]

Experiment [3] deals with anti-OVA-specific IgG1 subclass antibody. Description: Adjuvant activity test: anti-OVA-specific IgG1 subclass antibody in serum of OVA-immunized mice (ELISA). To be noted: dorsal-subcutaneous, compared to OVA single administration group.
[4] abbreviates: Experimental Example 4: after secondary immunization, OVA 5 μg + compound 0.256 μmol dissolved in saline (no αCD).
Where [5] appears, read: conclusion from IgG1/IgG2a after secondary immunization, compound 0.256 μmol in 5% αCD-added saline with OVA 5 μg, dorsal-subcutaneous.
Where [6] appears, read: after primary immunization, serum 2 weeks later, OVA 5 μg + compound 0.256 μmol in 5% αCD-added saline (Addavax mixed with saline at 1:1).

As to `CCCCCCCCCCCCCCCC(=O)N[C@@H](CCCNC(=N)N)C(=O)NCCCCCCCCCCCC.Cl` [SZ111, N-[(1S)-1-(dodecylcarbamoyl)-4-guanidino-butyl]hexadecanamide hydrochloride], the “anti-OVA-specific IgG2a subclass antibody production” value in experiment [1] (setting [4]) is “significantly increased”. Also, the adjuvant activity result in experiment [2] (Experimental Example 4: conclusion from IgG1/IgG2a after secondary immunization, compound dissolved in saline) is recorded as “has an adjuvant activity”; in experiment [2] (setting [5]), “has an adjuvant activity”. In experiment [3] (setting [4]), the “anti-OVA-specific IgG1 subclass antibody production” value is given as “significantly increased”.
Consider `CCCCCCCCCCCCCCCCCCCCCC(=O)N[C@@H](CCCNC(=N)N)C(=O)NCCCCCCCCCCCC.Cl` [SZ138, N-[(1S)-1-(dodecylcarbamoyl)-4-guanidino-butyl]docosanamide hydrochloride], for which the adjuvant activity entry in experiment [2] (setting [5]) is recorded as “have an adjuvant activity”.
In the case of `CCCCCCCCCCCCCCCCCCCCCC(=O)N[C@@H](CC(C)C)C(=O)NCCCCCCCCCCC` [SZ142, N-[(1S)-3-methyl-1-(undecylcarbamoyl)butyl]docosanamide], the adjuvant activity entry in experiment [2] (setting [5]) is “have an adjuvant activity”.
Still for that read-out and setting: with `CCCCCCCCCCCCCCCC(=O)N[C@@H](CC(C)C)C(=O)NCCCCCCCCCCCC` [SZ144, N-[(1S)-1-(dodecylcarbamoyl)-3-methyl-butyl]hexadecanamide] the entry was “have an adjuvant activity”; with `CCCCCCCCCCCCCCCCCCCCCC(=O)N[C@@H](C)C(=O)NCCCCCCCCCCCC` [SZ145, N-[(1S)-2-(dodecylamino)-1-methyl-2-oxo-ethyl]docosanamide], “have an adjuvant activity”.
For the compound `CCCCCCCCCCCCCCCCCCCCCC(=O)NC(C)(C)C(=O)NCCCCCCCCCCCC` [SZ146, N-[2-(dodecylamino)-1,1-dimethyl-2-oxo-ethyl]docosanamide], the adjuvant activity entry in experiment [2] (setting [5]) is reported as “have an adjuvant activity”.
Same read-out and setting: the value for `CCCCCCCCCCCCCCCCCCCCCC(=O)NCCC(=O)NCCCCCCCCCCCC` [SZ147, N-[3-(dodecylamino)-3-oxo-propyl]docosanamide] was “have an adjuvant activity”; that for `CCCCCCCCCCCCCCCCCCCCCC(=O)NCC(C)(C)C(=O)NCCCCCCCCCCCC` [SZ148, N-[3-(dodecylamino)-2,2-dimethyl-3-oxo-propyl]docosanamide] was “have an adjuvant activity”.
The same measure, in the same setting: with `CCCCCCCCCCCCCCCCOC(=O)N[C@@H](CCCNC(=N)N)C(=O)NCCCCCCCCCCCC.Cl` [SZ150, Hexadecyl N-[(1S)-1-(dodecylcarbamoyl)-4-guanidino-butyl]carbamate hydrochloride] the entry was “have an adjuvant activity”; with `CCCCCCCCCCCCCCCC(=O)N[C@@H](CCCCN)C(=O)NCCCCCCCCCCCC.Cl` [SZ153, N-[(1S)-5-amino-1-(dodecylcarbamoyl)pentyl]hexadecanamide hydrochloride], “have an adjuvant activity”.
As for `CCCCCCCCCCCCCCCCCCCCCC(=O)N[C@@H](CCCC)C(=O)NCCCCCCCCCCCC` [SZ155, N-[(1S)-1-(dodecylcarbamoyl)pentyl]docosanamide], in experiment [2] (setting [5]), the adjuvant activity entry is “have an adjuvant activity”.
As to `CCCCCCCCCCCCCCCCCCCCCC(=O)N1CCC(C(=O)NCCCCCCCCCCCC)CC1` [SZ156, 1-docosanoyl-N-dodecyl-piperidine-4-carboxamide], the adjuvant activity entry in experiment [2] (setting [5]) is “have an adjuvant activity”.
The same measure, in the same setting: the value for `CCCCCCCCCCCCCCCCCCCCCC(=O)N[C@@H](CCCNC(=N)N)C(=O)N(CCCCCCC)CCCCCCC.Cl` [SZ159, N-[(1S)-1-(diheptylcarbamoyl)-4-guanidino-butyl]docosanamide hydrochloride] was “have an adjuvant activity”; that for `CCCCCCCCCCCCCCCCCCCCCC(=O)N[C@@H](CCCCN)C(=O)NCCCCCCCCCCCC.Cl` [SZ160, N-[(1S)-5-amino-1-(dodecylcarbamoyl)pentyl]docosanamide hydrochloride] was “have an adjuvant activity”.
Regarding `CCCCCCCC/C=C/CCCCCCCC(=O)N[C@@H](CCCNC(=N)N)C(=O)NCCCCCCCCCCCC.Cl` [SZ161, (E)-N-[(1S)-1-(dodecylcarbamoyl)-4-guanidino-butyl]octadeca-9-enamide hydrochloride], in experiment [2] (setting [5]), the adjuvant activity result is “have an adjuvant activity”.
Consider `CCCCCCCCCCCCCCCCCCCCCC(=O)N[C@@H](CCCNC(=N)N)C(=O)NCCCCCCC.Cl` [SZ163, N-[(1S)-4-guanidino-1-(heptylcarbamoyl)butyl]docosanamide hydrochloride], for which the adjuvant activity result in experiment [2] (setting [5]) is recorded as “have an adjuvant activity”.
On the same count and under the same terms, with `CCCCCCCCCCCCCCCCCCCCCC(=O)N[C@@H](CCCN)C(=O)NCCCCCCCCCCCC.Cl` [SZ165, N-[(1S)-4-amino-1-(dodecylcarbamoyl)butyl]docosanamide hydrochloride] the entry was “have an adjuvant activity”.
For the compound `CCCCCCCCCCCCCCCCCCCCCC(=O)N[C@@H](CCCCNC(=N)N)C(=O)NCCCCCCCCCCCC.Cl` [SZ166, N-[(1S)-1-(dodecylcarbamoyl)-5-guanidino-pentyl]docosanamide hydrochloride], the adjuvant activity entry in experiment [2] (setting [5]) is on record as “have an adjuvant activity”.
Same read-out and setting: the value for `CCCCCCCCCCCCCCCCCCCCCC(=O)N[C@@H](CCCCNC(C)=O)C(=O)NCCCCCCCCCCCC` [SZ167, N-[(1S)-5-acetamide-1-(dodecylcarbamoyl)pentyl]docosanamide] was “have an adjuvant activity”.
On to `CCCCCCCCCCCCCCCCNC(=O)N[C@@H](CCCNC(=N)N)C(=O)NCCCCCC.Cl` [SZ168, (2S)-5-guanidino-2-(hexadecylcarbamoylamino)-N-hexyl-pentanamide hydrochloride], for which the adjuvant activity entry in experiment [2] (setting [5]) is given as “have an adjuvant activity”.
Take `CCCCCCCCCCCCCCCCOC(=O)N[C@@H](CCCNC(=N)N)C(=O)NCCCCCC.Cl` [SZ169, Hexadecyl N-[(1S)-4-guanidino-1-(hexylcarbamoyl)butyl]carbamate hydrochloride]: the adjuvant activity entry in experiment [2] (setting [5]) is listed as “have an adjuvant activity”.
The same measure, in the same setting: the value for `CCCCCCCCCCCCCCCCCCCCCC(=O)N[C@@H](CCCCNC(=N)N)C(=O)NCCCCCC.Cl` [SZ170, N-[(1S)-5-guanidino-1-(hexylcarbamoyl)pentyl]docosanamide hydrochloride] was “have an adjuvant activity”.
As to `CCCCCCCCCCCCCCCCCCCC(=O)N[C@@H](CCCNC(=N)N)C(=O)NCCCCCCCCCCCC.Cl` [SZ180, N-[(1S)-1-(dodecylcarbamoyl)-4-guanidino-butyl]icosanamide hydrochloride], the “anti-OVA-specific IgG2a subclass antibody production” value in experiment [1] (setting [6]) is recorded as “significant enhancement”. For the same compound, the adjuvant activity entry in experiment [2] (conclusion from IgG1/IgG2a after primary immunization, compound 0.256 μmol in 5% αCD-added saline with OVA 5 μg, dorsal-subcutaneous) is reported as “have an adjuvant activity”; in experiment [2] (setting [5]), “have an adjuvant activity”. For the same compound, the “anti-OVA-specific IgG1 subclass antibody production” value in experiment [3] (setting [6]) is “significant enhancement”.
